The results in this text go back to patent publication US11180509B2, “Thiazolidone spiro pyrimidine trione compound, preparation method therefor and uses thereof” (SHANGHAI INSTITUTE OF MATERIA MEDICA, CHINESE ACADEMY OF …, priority 2017, dated 2021).

In series [1] the test system is S. aureus MRSA15-3 infected mice. As to the kind of experiment: In vivo protection test, systemic infection model (ED50). The arrangement: species or system Kunming mice. The settings on record: Staphylococcus aureus.
In series [2] the test system is Streptococcus pyogenes. As to the kind of experiment: In vitro antibacterial activity, MIC by micro broth dilution. It is filed as cell-based. The note with it: read-out: MIC Spy. An excerpt: (§1) The following strains isolated in clinic were used in antibacterial activity screening in vitro: five strains of methicillin-resistant Staphylococcus aureus or MRSA, five strains of methicillin-sensitive Staphylococcus aureus or MSSA, five strains of methicillin-resistant Staphylococcus epidermidis or MRSE, five strains of methicillin-sensitive Staphylococcus epidermidis or MSSE, three strains of penicillin-resistant Streptococcus pneumoniae or PRSP, and three strains of Streptococcus pyogenes.
(§2) The above strains were clinically isolated pathogenic bacteria collected in Sichuan and Beijing in December 2015. They were identified by the collection unit via a VITEK-60 automatic microbiological identification instrument, and then re-identified by conventional methods in the laboratory. Before the experiment, each strain was purified by a single colony on an agar plate, and the cells freshly cultured at 37° C. overnight were appropriately diluted for the experiment. Quality control strain was Staphylococcus aureus ATCC25923 purchased from the Clinical Testing Center of the Ministry of Health of the People's Republic of China.
(§3) Medium: MH (Mueller-Hinton, hydrolyzed casein) broth (OXOID);
(§4) Culture condition: Incubate at 35-37° C. for 16-18 h.
(§5) The MIC value of each test sample for the tested strain was determined by micro broth dilution method recommended by Performance Standards for Antimicrobial Susceptibility Testing (Twenty-Third Informational Supplement; M02-A11, M07-A9 and M11-A8, 2013) of American Clinical and Laboratory Standards Institute (CLSI).
(§6) After diluting each test sample to different concentrations in MH broth, 100 μl of each sample solution at different concentrations was pipetted into a sterilized 96-well polystyrene plate. In the first to twelfth wells, the drug solution was added, and the final drug concentrations in each well were 64, 32, 16, 8, 4, 2, 1, 0.5, 0.25, 0.125, 0.06, and 0.03 mg/L. The well without drug and without bacteria was set as blank control well. The well with bacteria and without drug was set as a bacterial growth control well.
(§7) The test bacterial solution was adjusted with physiological saline to a bacterial suspension equivalent to 0.5 Maisson turbidity standard, and diluted 1:100 with MH broth. The drug solution was added so that the final concentration of the bacterial solution was about 10^4 CFU/ml; then 100 μl of bacterial solution was pipetted into the above wells (the total volume in each well was 200 μl). The plate was sealed and placed in a 35-37° C. incubator for 18-20 h, and then the results were determined. […] When Streptococcus pneumoniae was tested, sterile defibrillated sheep blood was added into the Colombian broth culture medium at a final concentration of 5% and cultivation was conducted in a 5% CO2 and 35-37° C. incubator for 18-20 hours.
For orientation: Broth dilution looks for growth in wells or tubes with falling amounts of substance.

Series [3] has as its system methicillin-sensitive Staphylococcus epidermidis or MSSE. The series is described as above. Type of series: cell-based. The note with it: read-out: MIC MSSE.
Text: as §1, §2, §3, §4, §5, §6, §7

Series [4] has as its system methicillin-resistant Staphylococcus epidermidis or MRSE. The description is as above. The note with it: read-out: MIC MRSE. Type of series: cell-based.
Text: as §1, §2, §3, §4, §5, §6, §7

The test system of series [5] is methicillin-resistant Staphylococcus aureus or MRSA. The series is described as above. The note with it: read-out: MIC MRSA. It is filed as cell-based.
Text: as §1, §2, §3, §4, §5, §6, §7

The subject of series [6] is methicillin-sensitive Staphylococcus aureus or MSSA. The description is as above. Type of series: cell-based. The settings on record: read-out: MIC MSSA.
Text: as §1, §2, §3, §4, §5, §6, §7

In series [7] the test system is penicillin-resistant Streptococcus pneumoniae or PRSP. The series is described as above. It is filed as cell-based. The settings on record: read-out: MIC PRSP.
Text: as §1, §2, §3, §4, §5, §6, §7

Series [8] can be described thus: In vivo pharmacokinetics test in mice (oral). Further details: species or system CD-1 mice. The note with it: PO 10.0 mg/kg. How it is done:
Healthy female CD-1 mice were randomly divided into five groups and each group comprised three mice. The tested compound was administered orally.
0.030 mL of blood was taken from the orbit of each animal each time and anticoagulated with EDTAK2. The collection time was as follows. PO group: 15 m, 30 mi, 1 h, 2 h, 4 h, 6 h, 8 h, and 24 h after administration of the test compound. The collected blood samples were placed on ice and centrifuged within 30 minutes to separate the plasma (centrifugation conditions: 5000 rpm, 10 minutes, room temperature). The samples were stored at −80° C. before analysis.

Series [9] deals with Staphylococcus aureus MRSA15-3. As to the kind of experiment: In vitro antibacterial activity against the in vivo test strain (MIC). Type of series: cell-based. The note with it: MRSA153. As for the experimental part: as §5, §6
The test bacterial solution was adjusted with physiological saline to a bacterial suspension equivalent to 0.5 Maisson turbidity standard, and diluted 1:100 with MH broth. The drug solution was added so that the final concentration of the bacterial solution was about 10^4 CFU/ml; then 100 μl of bacterial solution was pipetted into the above wells (the total volume in each well was 200 μl). The plate was sealed and placed in a 35-37° C. incubator for 18-20 h, and then the results were determined. […]

Series [10] in a line: In vivo pharmacokinetic test in rats (PO and IV). The note with it: SD rats. How it is done:
Nine SD rats were randomly divided into three groups and each group comprised three […].
0.100 mL of blood was taken from the orbit of each animal each time and anticoagulated with EDTAK2. The collection time was as follows. (1) PO group (10.0 mg/kg): 15 min, 30 min, 1 h, 2 h, 4 h, 6 h, 8 h, 24 h after administration of the test compound; PO group (100 mg/kg): 15 min, 30 min 1 h, 2 h, 4 h, 6 h, 8 h, 10 h, 24 h, 36 h, 48 h; (2) IV group: 5 min, 15 min, 30 min, 1 h, 2 h, 4 h, 6 h, 8 h, 24 h after administration of the test compound. The collected blood samples were placed on ice and centrifuged within 30 minutes to separate the plasma (centrifugation conditions: 5000 rpm, 10 minutes, 4° C.). The samples were stored at −80° C. before analysis.

Series [11] has as its system MRSA, MSSA, MRSE, MSSE, PRSP, and Spy. Kind of series: In vitro antibacterial activity over the whole strain panel, compared with AZD0914. It is filed as cell-based. The note with it: against MRSA.
Text: as §1, §2, §5, §6, §7

The term ED50 denotes the dose at which the effect has come halfway, by size or by number of responders. What is called MIC is the lowest concentration found to suppress growth. The term AUC(0-t) denotes the area under the concentration-time curve up to a stated or last time point. Low readings indicate low exposure, high ones high exposure. A word on the Cmax: it is the highest concentration seen after dosing. In general, MRT refers to the average time that molecules of a dose stay in the body. As a reminder, the Tmax is the time at which the peak concentration occurs. One may read the bioavailability as the share of a dose that reaches the circulation, judged against a reference dose that is usually intravenous. Lower therefore signals poor availability. One may read the melting point as the temperature, or range, at which the solid turns liquid.

Values after ≈ are worked out from the molar mass of the structure shown. Like-named read-outs stand apart in the source and are kept apart here.

On to `C[C@@H]1CN2c3c(cc4c(N5C[C@H](C)SC5=O)noc4c3F)CC3(C(=O)NC(=O)NC3=O)[C@H]2[C@H](C)O1` [Compound 2, (2R,4S,4aS)-11-fluoro-2,4-dimethyl-8-((S)-5-methyl-2-oxothiazolin-3-yl)-1,2,4,4a-tetrahydro-2′H,6H-spiro[isoxazole[4,5-g][1,4]oxazine[4,3-a]quinoline-5,5′-pyrimidine]-2′,4′,6′(1′H,3′H)-trione], for which the ED50 in series [1] was 2.54 mg/kg; in series [1] (po, read-out: ED50 95% confidence limit), 0.11 to 3.71 mg/kg. Also, the MIC was less than 0.03 µg/mL in [2]; less than 0.03 µg/mL in [3]; less than 0.03 µg/mL in [4]; 0.03 to 0.25 µg/mL (≈ 0.0596 to 0.497 µM) in [5]; 0.03 to 0.06 µg/mL (≈ 0.0596 to 0.119 µM) in series [6]; less than 0.03 µg/mL in series [7]. The MIC in [9] was less than 0.03 µg/mL. Besides, the area under the curve AUC(0-t) was determined as 24200 ± 5640 ng·h/mL in series [8] (female, CD-1, mouse, plasma) and 509000 ± 65900 ng·h/mL in series [10] (rat, plasma, PO 100 mg/kg). The half-life in [8] (female, CD-1, mouse, plasma) is 6.2 ± 1.4 h; in series [10] (rat, plasma, PO 100 mg/kg, read-out: T1/2 (PO) (converted)), 4.19 ± 0.23 h. In addition, the Cmax in series [8] (female, CD-1, mouse, plasma, read-out: Cmax) turned out to be 2580 ± 713 ng/mL. Also, the mean residence time MRT stood at 8.94 ± 2.15 h in series [8] (female, CD-1, mouse, plasma, read-out: MRT); 6.22 ± 0.601 h in series [10] (rat, plasma, IV 10 mg/kg, read-out: MRT (IV)); 7.54 ± 0.773 h in series [10] (rat, plasma, PO 10 mg/kg, read-out: MRT (PO)); 11.1 ± 2.11 h in [10] (rat, plasma, PO 100 mg/kg, read-out: MRT (PO)). The Tmax in [8] (female, CD-1, mouse, plasma, read-out: Tmax) is 2.67 ± 1.15 h; in [10] (rat, plasma, PO 10 mg/kg) it was 5.33 ± 1.15 h; in series [10] (rat, plasma, PO 100 mg/kg) it was 5.33 ± 1.15 h. For the same compound, in series [10] (IV 10 mg/kg), the “AUC0-t (IV)” value worked out at 89577 ± 9072 ng·h/mL. In series [10] (IV 10 mg/kg), the “Cl (IV)” value turned out to be 1.82 ± 0.214 mL/min/kg. Also, the “T1/2 (IV)” value in series [10] (IV 10 mg/kg) worked out at 4.93 ± 0.844 h. In addition, the “Vdss (IV)” value in series [10] (IV 10 mg/kg) was 0.675 ± 0.0578 L/kg. Besides, the “% F” value in series [10] (PO 10 mg/kg) was 52.0 ± 8.41%. Moreover, in series [10] (PO 10 mg/kg), the “AUC0-t (PO)” value turned out to be 46598 ± 7538 ng·h/mL. Besides, the “Cmax (PO)” value came out at 4430 ± 1250 ng/mL in series [10] (PO 10 mg/kg) and 32069 ± 7934 ng/mL in [10] (PO 100 mg/kg). The “T1/2 (PO)” value in [10] (PO 10 mg/kg) was 4.38 ± 1.21 h. In series [10] (rat, plasma, PO 100 mg/kg), this compound returned a bioavailability of 55.1 ± 7.1%.

On to `C[C@@H]1CN2c3c(cc4c(N5CCSC5=O)noc4c3F)CC3(C(=O)NC(=O)NC3=O)[C@H]2[C@H](C)O1` [Compound 1, (2R,4S,4aS)-11-fluoro-2,4-dimethyl-8-(2-oxothiazolin-3-yl)-1,2,4,4a-tetrahydro-2′H,6H-spiro[isoxazole[4,5-g][1,4]oxazine[4,3-a]quinoline-5,5′-pyrimidine]-2′,4′,6′(1′H,3′H)-trione], for which the melting point lay within 225 to 226 °C. Further, in [11], the “in vitro antibacterial activity relative to AZD0914” value was “about 8 times”. Besides, the MIC in series [2] is less than 0.03 µg/mL. Also, the MIC in series [3] is less than 0.03 µg/mL. Further, in series [4], the MIC is less than 0.03 µg/mL. Further, the MIC in series [5] was in the range of 0.03 to 0.06 µg/mL (≈ 0.0613 to 0.123 µM). Besides, the MIC in series [6] was less than 0.03 µg/mL. The MIC in series [7] was less than 0.03 µg/mL. Also, in [8] (multiple of the AZD0914 value), the “AUC0→t relative to AZD0914” value is given as approximately 10 times) and the “Cmax relative to AZD0914” value is approximately 8 times). Also, in series [8] (plasma), the AUC0→t came out at 7334 ± 943 ng·h/mL, the Cmax stood at 1548 ± 52 ng/mL, the MRT was 3.70 ± 0.95 h and the time of peak concentration (Tmax) amounted to 1.33 ± 0.577 h. The compound also displayed a t1/2 in series [8] (plasma) of 2.90 ± 1.72 h.
